Laboratory results as given in patent publication US20110178104A1, “Anti-Heparin Compounds” (POLYMEDIX INC., priority 2010, published 2011).

Legend:
tinzaparin = assay: FXa amidolytic assay (Example 10), tinzaparin; conditions: read-out: Tinzap FXa EC50; tinzaparin 0.1 ug/ml; human antithrombin, bovine Factor Xa
fondaparinux = assay: FXa amidolytic assay (Example 10), fondaparinux; conditions: read-out: Fondap FXa EC50; fondaparinux 0.02 μg/mL; human antithrombin, bovine Factor Xa
enoxaparin = assay: FXa amidolytic assay (Example 10), enoxaparin; conditions: read-out: Enox FXa EC50; enoxaparin 0.1 ug/ml; human antithrombin, bovine Factor Xa
Unfractionated heparin = assay: aPTT clotting assay, UFH 0.4 U/mL in plasma (Example 10); type: biochemical; conditions: unfractionated heparin 0.4 U/mL in plasma; aPTT clotting
Experimental: aPTT clotting Assay: Unfractionated heparin was mixed with plasma at a final concentration of 0.4 U/mL (or concentration which increases aPTT time to between 120 and 300 seconds). […] The ACL Elite Hemostasis analyzer (Beckman Coulter™) was used to add aPTT reagent (HemosIL SynthASil) to supplemented plasma. Clotting was initiated by addition of CaCl2 and time to clot was recorded.

SMILES | EC50 (tinzaparin) | EC50 (fondaparinux) | EC50 (enoxaparin) | EC50 (Unfractionated heparin)
COc1ccc(NC(=O)[C@H](CCCCN)NC(=O)c2cc(NC(=O)[C@H](CCCCN)NC(=O)c3cc(NC(=O)[C@H](CCCCN)NC(=O)c4cc(NC(=O)[C@H](N)CCCCN)ccc4OC)ccc3OC)ccc2OC)cc1C(N)=O [Compound 231] | 0.099 µM | 3.56 µM | 0.192 µM | 2.31 µM
COc1ccc(NC(=O)[C@H](C)NC(=O)c2cc(NC(=O)[C@H](CCCCN)NC(=O)c3cc(NC(=O)[C@H](CCCCN)NC(=O)c4cc(NC(=O)[C@@H](N)CCCCN)ccc4OC)ccc3OC)ccc2OC)cc1C(N)=O [Compound 232] | 0.536 µM | > 10 µM | 0.862 µM | 3.24 µM
COc1ccc(NC(=O)[C@H](CCCCN)NC(=O)c2cc(NC(=O)[C@H](CCCCN)NC(=O)c3cc(NC(=O)[C@H](CCCCN)NC(=O)c4cc(NC(=O)[C@@H](N)CCCCN)ccc4OCC(=O)O)ccc3OC)ccc2OC)cc1C(N)=O [Compound 272] | 0.24 µM | 7.69 µM | 0.541 µM | 3.09 µM
COc1ccc(NC(=O)[C@H](CCCNC(=N)N)NC(=O)c2cc(NC(=O)[C@H](CCCNC(=N)N)NC(=O)c3cc(NC(=O)[C@@H](N)CCCNC(=N)N)ccc3OC)ccc2OC)cc1C(=O)N[C@@H](CCCNC(=N)N)C(=O)Nc1ccc(OCC(=O)O)c(C(N)=O)c1 [Compound 286] | 0.104 µM | 0.526 µM | 0.118 µM | 1.9 µM
COc1ccc(NC(=O)[C@H](CCCCN)NC(=O)c2cc(NC(=O)[C@H](CCCCN)NC(=O)c3cc(NC(=O)[C@H](CCCCN)NC(=O)c4ccc(NC(=O)[C@@H](N)CCCCN)cc4)ccc3OC)ccc2OC)cc1C(N)=O [Compound 241] | 0.167 µM | > 10 µM | 0.431 µM | 5.44 µM
COc1ccc(NC(=O)[C@H](CCCCN)NC(=O)c2cc(NC(=O)[C@H](CCCCN)NC(=O)c3cc(NC(=O)[C@H](CCCCN)NC(=O)c4cc(NC(=O)[C@@H](N)CCCCN)ccc4OC)ccc3OC)ccc2OC)cc1C(=O)NCCCCCC(=O)O [Compound 274] | 0.299 µM | 7.02 µM | 0.558 µM | 1.63 µM
COc1ccc(NC(=O)[C@H](CCCNC(=N)N)NC(=O)c2cc(NC(=O)[C@H](CCCNC(=N)N)NC(=O)c3cc(NC(=O)[C@H](C)NC(=O)CCCCNC(=N)N)ccc3OC)ccc2OC)cc1C(N)=O [Compound 224] | 0.792 µM | 4.45 µM | 1.02 µM | 7.23 µM
[2H]C(C([2H])C([2H])([2H])CN)[C@H](N)C(=O)Nc1ccc(OC)c(C(=O)N[C@@H](CCCCN)C(=O)Nc2ccc(OC)c(C(=O)N[C@@H](CCCCN)C(=O)Nc3ccc(OC)c(C(=O)N[C@@H](CCCCN)C(=O)Nc4ccc(OC)c(C(N)=O)c4)c3)c2)c1 (stereo partly drawn) [Compound 230] | 0.147 µM | 4.88 µM | 0.252 µM | 2.78 µM
COc1ccc(NC(=O)[C@H](CCCCN)NC(=O)c2cc(NC(=O)[C@H](CCCCN)NC(=O)c3cc(NC(=O)[C@H](CCCCN)NC(=O)c4cc(NC(=O)[C@@H](N)CCCCN)ccc4OC)ccc3OC)ccc2OC)cc1C(=O)N[C@@H](CCC(=O)O)C(=O)O [Compound 276] | 0.363 µM | 5.18 µM | 0.625 µM | 2.33 µM
COc1ccc(NC(=O)[C@H](CCCNC(=N)N)NC(=O)c2cc(NC(=O)[C@H](CCCNC(=N)N)NC(=O)c3cc(NC(=O)[C@H](CCCNC(=N)N)NC(=O)c4cc(NC(C)=O)ccc4OC)ccc3OC)ccc2OC)cc1C(=O)NCCC(=O)O [Compound 300] | 0.311 µM | 0.462 µM | 0.272 µM | 3.43 µM
COc1ccc(NC(=O)[C@@H](CCCNC(=N)N)NC(=O)c2cc(NC(=O)[C@@H](CCCNC(=N)N)NC(=O)c3cc(NC(=O)[C@@H](CCCNC(=N)N)NC(=O)c4cc(NC(C)=O)ccc4OC)ccc3OC)ccc2OC)cc1C(=O)N[C@@H](Cc1ccc(O)cc1)C(=O)O [Compound 296] | 0.296 µM | 0.437 µM | 0.286 µM | 15.3 µM
COc1ccc(NC(=O)[C@H](CCCCN)NC(=O)c2cc(NC(=O)[C@H](CCCCN)NC(=O)c3cc(NC(=O)[C@H](CCCCN)NC(=O)c4cc(NC(=O)[C@@H](N)CCCCN)cc(C(F)(F)F)c4)ccc3OC)ccc2OC)cc1C(N)=O [Compound 239] | 0.124 µM | 4 µM | 0.241 µM | 4.26 µM
COc1ccc(NC(=O)[C@H](CCCCN)NC(=O)c2cc(NC(=O)[C@@H](N)CCCCN)ccc2OC)cc1C(=O)N[C@@H](CCCCN)C(=O)Nc1ccc(SC)c(C(=O)N[C@@H](CCCCN)C(=O)Nc2ccc(SC)c(C(N)=O)c2)c1 [Compound 268] | > 5 µM | > 10 µM | > 5 µM | > 10 µM
COc1ccc(NC(=O)[C@@H](CCCNC(=N)N)NC(=O)c2cc(NC(=O)[C@@H](CCCNC(=N)N)NC(=O)c3cc(NC(=O)[C@@H](CCCNC(=N)N)NC(=O)c4cc(NC(=O)[C@H](N)CCCNC(=N)N)ccc4OC)ccc3OC)ccc2OC)cc1C(=O)NCCC(=O)O [Compound 279] | 0.134 µM | 0.775 µM | 0.154 µM | 1.95 µM
COc1ccc(NC(C)=O)cc1C(=O)N[C@@H](CCCNC(=N)N)C(=O)Nc1ccc(OC)c(C(=O)N[C@@H](CCCNC(=N)N)C(=O)Nc2ccc(OC)c(C(=O)N[C@@H](CCCNC(=N)N)C(=O)Nc3ccc(OC)c(C(=O)N[C@H](Cc4ccc(O)cc4)C(=O)O)c3)c2)c1 [Compound 302] | 0.278 µM | 0.491 µM | 0.298 µM | 10.6 µM

Other lines, results leading:

EC50 (tinzaparin) | EC50 (fondaparinux) | EC50 (enoxaparin) | EC50 (Unfractionated heparin) | SMILES
> 5 µM | > 10 µM | > 5 µM | > 10 µM | COc1cc(OC)c(C(=O)NCCCNC(=O)c2cc(C(=O)NCCCNC(=O)c3cc(C(=O)NCCN)c(OC)cc3OC)c(OC)cc2OC)cc1C(=O)NCCN [Compound 391]
0.257 µM | 2.33 µM | 0.448 µM | 1.88 µM | COc1ccc(NC(=O)[C@H](CCCCN)NC(=O)c2cc(NC(=O)[C@H](CCCCN)NC(=O)c3cc(NC(=O)[C@H](CCCCN)NC(=O)c4cc(NC(C)=O)ccc4OC)ccc3OC)ccc2OC)cc1C(N)=O [Compound 328]
0.261 µM | 3.05 µM | 0.407 µM | 1.41 µM | COc1ccc(NC(=O)[C@H](CCCCN)NC(=O)c2cc(NC(=O)[C@H](CCCCN)NC(=O)c3cc(NC(=O)[C@H](CCCCN)NC(=O)c4cc(NC(=O)[C@@H](N)CCC(=O)O)ccc4OC)ccc3OC)ccc2OC)cc1C(N)=O [Compound 318]
0.438 µM | 3.84 µM | 0.784 µM | 2.93 µM | COc1ccc(NC(=O)[C@H](CCCNC(=N)N)NC(=O)c2cc(NC(=O)[C@H](CCC(=O)O)NC(=O)c3cc(NC(=O)[C@H](CCCNC(=N)N)NC(=O)c4cc(NC(=O)[C@@H](N)CCCNC(=N)N)ccc4OC)ccc3OC)ccc2OC)cc1C(N)=O [Compound 324]
2.06 µM | > 10 µM | 3.32 µM | > 10 µM | COc1cc(OC)c(C(=O)N[C@H]2CC[C@@H](NC(=O)c3cc(C(=O)NCCN)c(OCCCCCN)cc3OCCCCCN)CC2)cc1C(=O)N[C@H]1CC[C@@H](N=C(N(C)C)N(C)C)CC1 [Compound 414]
> 5 µM | > 10 µM | > 5 µM | > 10 µM | COc1cc(OC)c(C(=O)N2CCC(CNC(=O)c3cc(C(=O)NCCN)c(OC)cc3OC)CC2)cc1C(=O)O [Compound 396]
2.77 µM | 14.8 µM | 4.65 µM | 7.06 µM | COc1cc(OC)c(C(=O)N[C@H]2CC[C@@H](NC(=O)c3cc(C(N)=O)c(OCCCCCN)cc3OCCCCCN)CC2)cc1C(=O)N[C@H]1CC[C@@H](N=C(N(C)C)N(C)C)CC1 [Compound 413]
> 5 µM | > 10 µM | > 5 µM | > 10 µM | COc1cc(OC)c(C(=O)N[C@H]2CC[C@H](NC(=O)c3cc(C(=O)NCCCN)c(OC)cc3OC)CC2)cc1C(=O)O [Compound 407]
0.178 µM | 1.05 µM | 0.276 µM | 2.44 µM | COc1ccc(NC(=O)[C@@H](CCC(=O)O)NC(=O)c2cc(NC(=O)[C@@H](CCCNC(=N)N)NC(=O)c3cc(NC(=O)[C@@H](CCCNC(=N)N)NC(=O)c4cc(NC(=O)[C@H](N)CCCNC(=N)N)ccc4OC)ccc3OC)ccc2OC)cc1C(N)=O [Compound 319]
0.113 µM | 0.197 µM | 0.125 µM | 0.687 µM | COc1cc(OC)c(C(=O)N[C@H]2CC[C@@H](NC(=O)c3cc(C(N)=O)c(OCCCCCN)cc3OCCCCCN)CC2)cc1C(=O)N[C@H]1CC[C@@H](NC(=O)c2cc(C(N)=O)c(OCCCCCN)cc2OCCCCCN)CC1 [Compound 412]
0.296 µM | > 10 µM | 1.18 µM | 3.15 µM | COc1cc(OC)c(C(=O)N[C@H]2CC[C@@H](NC(=O)c3cc(C(=O)N4CCC(CN)CC4)c(OCCCCCN)cc3OCCCCCN)CC2)cc1C(=O)N[C@H]1CC[C@@H](NC(=O)c2cc(C(=O)N3CCC(CN)CC3)c(OCCCCCN)cc2OCCCCCN)CC1 [Compound 423]
0.147 µM | 0.167 µM | 0.153 µM | 2.35 µM | COc1ccc(NC(=O)[C@H](CCCCN)NC(=O)c2cc(NC(=O)[C@H](CCCCN)NC(=O)c3cc(NC(=O)[C@H](CCCCN)NC(=O)c4cc(NC(=O)[C@H](CCCCN)NC(=O)c5cccc(C(=O)O)c5)ccc4OC)ccc3OC)ccc2OC)cc1C(N)=O [Compound 342]
